One data set in a line: Solubility assessment. Type of data set: physicochemical. The text has this: (§1) Within the pharmaceutical research and development field, the investigation of a suitable solid-state form represents a crucial step. Investigating a solid-state form comprises several decisions, mainly the investigation of an anhydrous, salt or co-crystal form and the investigation of a polymorph of the respective anhydrous, salt or co-crystal. During a lead optimization program, several properties of research compounds are optimized, typically leading to one or a few candidates that continue into exploratory development programs. Typically, in the assessment and optimization of physical chemical parameters during lead optimization, the main focus is on solubility. […] Beyond the optimization of solubility, further physical chemical parameters, such as (1) melting point, (2) thermal behavior, (3) hygroscopicity, (4) crystal habit, (5) polymorphic behavior or physical stability, (6) impurity profile, and (7) chemical stability of the anhydrous or salt form, must be borne in mind when investigating the salt. The melting point of a drug, either as a free base, acid or salt form, should be higher than a certain threshold to allow processing steps such as drying or tabletting. The assessment of thermal behavior, which is typically done by thermogravimetry (TGA) and differential scanning calorimetry (DSC), also includes solid-solid phase transitions. […]

Data set [1] has as its system KRAS^G12C tumors. Conditions: preclinical analyses, combination; cited from earlier work.
A further data set deals with tumors. Conditions: first dosing cohorts; cited from earlier work.
Data set [2] concerns KRAS^G12C tumors. Particulars: alone as well as in combination with immune-checkpoint inhibitors; cited from earlier work.
The nature of data set [3]: Hygroscopicity (moisture uptake versus relative humidity). The class given is physicochemical.
Text: as §1, with “transitions. These may be either enantiotropic or monotropic and can be related to the conversion of one polymorph to another or one pseudo-polymorph to another pseudo-polymorph—e.g. a lower solvate or hydrate—or a true polymorph. Hygroscopicity plays a key role in the evaluation of solid-state forms, as this property is highly relevant for many process steps such as drying, storage, blending, granulation, to name but a few. Hygroscopicity can be investigated by dynamic vapor sorption (DVS). Basically, this technique yields information on the amount of moisture that is taken up by the compound at a certain relative humidity level.” for “transitions.”

Data set [4] in a line: Solid state physical and chemical stability on storage (HPLC, XRPD, DSC, TGA). Type of data set: physicochemical. Conditions: 14 weeks at 25° C./60% RH, 40° C./75% RH, 40° C./ambient RH, and 60° C./ambient RH.
Data set [5] is described as follows: Excipient compatibility study in 3 prototype blends. Particulars: 3 prototype blends stored for 4 weeks at 40° C./75% RH. Type of data set: physicochemical. The procedure: (§2) Furthermore, crystalline anhydrous Form I was stable in an excipient compatibility study in 3 prototype blends that were stored for 4 weeks at 40° C./75% RH. Crystalline anhydrous Form I was also stable to ultraviolet and visible light in the solid state.

Data set [6] in a line: Stability to ultraviolet and visible light in the solid state. The class given is physicochemical. The procedure:
as §2

Data set [7] can be described thus: Polymorph conversion upon heating or slurrying (thermodynamic stability of forms). The class given is physicochemical. The procedure: Solutions of the compounds of the disclosure were prepared by adding enough solids to a given solvent so that excess solids were present. All forms described below can be obtained from various solvents, including, but not limited, to the specific solvents described in the Examples. The mixture was then agitated in a sealed vial at either ambient or elevated temperature. After a given amount of time, the solids were isolated by vacuum or centrifuge filtration and analyzed.
The crystalline anhydrous Form II and III described herein below convert to crystalline anhydrous Form I upon heating or slurrying.
Crystalline anhydrous Form III melts at 180° C.

Regarding `C=CC(=O)N1CCN(c2nc(=O)n(-c3c(C)ccnc3C(C)C)c3nc(-c4c(O)cccc4F)c(F)cc23)[C@@H](C)C1` (atropisomer, axis not shown) [Compound 1, 6-fluoro-7-(2-fluoro-6-hydroxyphenyl)-1-(4-methyl-2-(2-propanyl)-3-pyridinyl)-4-((2S)-2-methyl-4-(2-propenoyl)-1-piperazinyl)pyrido[2,3-d]pyrimidin-2 (1H)-one], in “Solubility assessment”, the solubility entry was “good solubility features”.
For the compound `C=CC(=O)N1CCN(c2nc(=O)n(-c3c(C)ccnc3C(C)C)c3nc(-c4c(O)cccc4F)c(F)cc23)[C@@H](C)C1` [Compound 1, 6-fluoro-7-(2-fluoro-6-hydroxyphenyl)-1-(4-methyl-2-(2-propanyl)-3-pyridinyl)-4-((2S)-2-methyl-4-(2-propenoyl)-1-piperazinyl)pyrido[2,3-d]pyrimidin-2 (1H)-one], the “effect on anti-tumor efficacy of chemotherapy and targeted agents” value in the data set on KRAS^G12C tumors [1] is “improved the anti-tumor efficacy of chemotherapy and targeted agents”. In addition, the “anti-tumor activity in clinical trials” value in the data set with tumors is recorded as “demonstrated anti-tumor activity”. In addition, the “tumor outcome in immune-competent mice” value in the data set with KRAS^G12C tumors [2] was “produced durable cures”.
Turning to `C=CC(=O)N1CCN(c2nc(=O)n(-c3c(C)ccnc3C(C)C)c3nc(-c4c(O)cccc4F)c(F)cc23)[C@@H](C)C1` [Form I, 6-fluoro-7-(2-fluoro-6-hydroxyphenyl)-1-(4-methyl-2-(2-propanyl)-3-pyridinyl)-4-((2S)-2-methyl-4-(2-propenoyl)-1-piperazinyl)pyrido[2,3-d]pyrimidin-2 (1H)-one], the moisture absorbed in data set [3] (between 0 and 90% RH at 25° C.) is given as 0.5-1.0 % wt. The “physical and chemical stability in the solid state (no degradation peaks by HPLC, no changes in XRPD, DSC, TGA)” value in data set [4] is “physically and chemically stable”. Moreover, the “stability in excipient compatibility study” value in data set [5] was “stable”. Moreover, the “stability to ultraviolet and visible light” value in data set [6] was “stable”. Also, the “thermodynamic stability among polymorphs identified in the screening process” value in data set [7] (polymorph and salt screen) is listed as “most thermodynamically stable polymorph”.
`C=CC(=O)N1CCN(c2nc(=O)n(-c3c(C)ccnc3C(C)C)c3nc(-c4c(O)cccc4F)c(F)cc23)[C@@H](C)C1` [Form II, 6-fluoro-7-(2-fluoro-6-hydroxyphenyl)-1-(4-methyl-2-(2-propanyl)-3-pyridinyl)-4-((2S)-2-methyl-4-(2-propenoyl)-1-piperazinyl)pyrido[2,3-d]pyrimidin-2 (1H)-one]: the moisture absorbed in data set [3] (between 0 and 90% RH at 25° C.) is recorded as 2-2.5 % wt. Further, the form conversion result in data set [7] (slurrying in water at 90° C. for 1 hour) is on record as “converts to crystalline anhydrous Form I”; in data set [7] (upon heating and recrystallization at 193° C.), “converts to crystalline anhydrous Form I”.
Turning to `C=CC(=O)N1CCN(c2nc(=O)n(-c3c(C)ccnc3C(C)C)c3nc(-c4c(O)cccc4F)c(F)cc23)[C@@H](C)C1` [Form III, 6-fluoro-7-(2-fluoro-6-hydroxyphenyl)-1-(4-methyl-2-(2-propanyl)-3-pyridinyl)-4-((2S)-2-methyl-4-(2-propenoyl)-1-piperazinyl)pyrido[2,3-d]pyrimidin-2 (1H)-one], in data set [3] (between 0-95% RH at 25° C.), the moisture absorbed is given as 7.0 % wt. The form conversion result in data set [7] (upon melting and recrystallization at 220° C.) is recorded as “converts to crystalline anhydrous Form I”.

The values are drawn from patent publication US12415806B1, “Solid state forms” (AMGEN INC., priority 2019, dated 2025).
